These results are taken from patent publication US6849624B2, “Aromatic and heteroaromatic substituted amides” (Hoffmann-La Roche Inc., priority 2001, dated 2005).

What is called clearance is the rate of elimination divided by the concentration. A low value points to inefficient removal. Usually bioavailability stands for the share of a dose that reaches the circulation, judged against a reference dose that is usually intravenous. A word on the half-life: it is the time needed for the level to fall by half in the phase considered. What is called melting point is the temperature of the solid-liquid transition.

SMILES strings stand for the structures.

The target in data set [1] is T1, NK1 receptor (Meriones unguiculatus, UniProt Q5DUB1).
T1 construct: from tissue; host or cells: living gerbils (brain, i.c.v. agonist injection)
Kind of data set: foot-tapping behavior induced in Gerbils by i.c.v. injection of an NK1 receptor agonist. To be noted: Gerbil; for dose calculated to inhibit 50% of the foot-tapping behavior: oral administration; for total plasma concentration required to completely block the foot-tapping behavior: total plasma level. The format is in vivo. The protocol:
In vivo 2-(3,5-bis-trifluoromethyl-phenyl)-N-[6-(1,1-dioxo-1λ^6-thiomorpholin-4-yl)-4-o-tolyl-pyridin-3-yl]-N-methyl-isobutyramide antagonizes foot-tapping behavior induced in Gerbils with intracerebroventricular (i.c.v.) injections of an NK1 receptor agonist. The dose for this compound calculated to inhibit 50% of the foot-tapping behavior following oral administration was 0.8 mg/kg. […] Similarly, 2-(3,5-bis-trifluoromethyl-phenyl)-N-[6-(1,1-dioxo-1λ^6-thiomorpholin-4-yl)-4-(4-fluoro-2-methyl-phenyl)-pyridin-3-yl]-N-methyl-isobutyramide also antagonized NK1 agonist-induced foot-tapping in Gerbils. The dose for this compound calculated to inhibit 50% of the foot-tapping behavior following oral administration was 0.1 mg/kg. The total plasma levels that are required to completely antagonize this behavior are less than 10 ng/ml.

A short description of data set [2]: pharmacokinetic parameters in rats. To be noted: rat, in vivo; for bioavailability: po; for half-life: read-out: terminal half-life (converted); for Vd: read-out: volume of distribution. The text has this:
(§1) The pharmacokinetic parameters of both compounds have been evaluated in both rats and dogs.

A short description of data set [3]: pharmacokinetic parameters in dogs. To be noted: dog, in vivo; for Vd: read-out: volume of distribution.
Description: as §1

Data set [4] concerns the target T2, human NK1 receptor (Homo sapiens, UniProt P25103).
T2 construct: expressed in transfected cells; host or cells: CHO cells (Semliki virus expression system)
The experiment in a line: [3H]substance P binding to human NK1 receptor in transfected CHO cells. To be noted: recombinant human NK1 receptor in CHO cells, [3H]substance P 0.6 nM; read-out: affinity (pKi) for the human NK1 receptor (converted). The protocol:
The affinities of the compounds 2-(3,5-bis-trifluoromethyl-phenyl)-N-[6-(1,1-dioxo-1λ^6-thiomorpholin-4-yl)-4-o-tolyl-pyridin-3-yl]-N-methyl-isobutyramide and 2-(3,5-bis-trifluoromethyl-phenyl)-N-[6-(1,1-dioxo-1λ^6-thiomorpholin-4-yl)-4-(4-fluoro-2-methyl-phenyl)-pyridin-3-yl]-N-methyl-isobutyramide for the human NK1 receptor were evaluated in Chinese Hamster Ovary (CHO) cells transfected with the human NK1 receptor (using the Semliki Virus expression system) and radiolabelled with [^3H]substance P (final concentration 0.6 nM). Binding assays were performed in HEPES buffer (50 mM, pH 7.4) containing BSA (0.04%), leupeptin (8 μg/ml), MnCl2 (3 mM) and phosphoramidon (2 μM). Binding assays consisted of 250 μl of membrane suspension (1.25×10^5 cells/assay tube), […] of buffer of displacing agent and 125 μl of [^3H] substance P. Displacement curves were determined with at least seven concentrations of the compound. The assay tubes were incubated for 60 min at room temperature after which time the tube contents were rapidly filtered under vacuum through GF/C filters presoaked for 60 min with PEI (0.3%) with 2×2 ml washes of HEPES buffer (50 mM, pH 7.4). The radioactivity retained on the filters was measured by scintillation counting. All assays were performed in triplicate in at least 2 separate experiments. […]

The target of data set [5] is T2, human NK1 receptor. Kind of data set: substance P induced Ca2+ influx in CHO cells expressing recombinant human NK1 receptor (FLIPR). The format is cell-based. The settings on record: increasing concentrations, CHO cells with recombinant human NK1 receptor. From the text:
The activity in vitro was examined by studying its effect on substance P induced Ca^2+ influxes in CHO cells expressing the recombinant human NK1 receptor. In these cells, substance P causes a concentration dependent influx of Ca^2+ which can be measured using FLIPR technology.

T1 sequence (Q5DUB1 whole entry): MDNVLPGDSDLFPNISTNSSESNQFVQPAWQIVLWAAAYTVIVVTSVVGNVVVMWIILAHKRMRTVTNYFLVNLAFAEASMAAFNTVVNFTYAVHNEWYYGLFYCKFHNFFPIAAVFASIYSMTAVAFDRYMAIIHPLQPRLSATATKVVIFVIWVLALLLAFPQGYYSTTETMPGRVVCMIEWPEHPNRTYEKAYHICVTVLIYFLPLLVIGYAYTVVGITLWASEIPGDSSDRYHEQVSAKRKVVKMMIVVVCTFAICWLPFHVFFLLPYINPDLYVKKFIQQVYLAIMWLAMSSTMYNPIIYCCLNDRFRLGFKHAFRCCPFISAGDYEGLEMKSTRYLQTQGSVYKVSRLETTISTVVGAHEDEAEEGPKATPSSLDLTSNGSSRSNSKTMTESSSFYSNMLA
T2 sequence (P25103 whole entry): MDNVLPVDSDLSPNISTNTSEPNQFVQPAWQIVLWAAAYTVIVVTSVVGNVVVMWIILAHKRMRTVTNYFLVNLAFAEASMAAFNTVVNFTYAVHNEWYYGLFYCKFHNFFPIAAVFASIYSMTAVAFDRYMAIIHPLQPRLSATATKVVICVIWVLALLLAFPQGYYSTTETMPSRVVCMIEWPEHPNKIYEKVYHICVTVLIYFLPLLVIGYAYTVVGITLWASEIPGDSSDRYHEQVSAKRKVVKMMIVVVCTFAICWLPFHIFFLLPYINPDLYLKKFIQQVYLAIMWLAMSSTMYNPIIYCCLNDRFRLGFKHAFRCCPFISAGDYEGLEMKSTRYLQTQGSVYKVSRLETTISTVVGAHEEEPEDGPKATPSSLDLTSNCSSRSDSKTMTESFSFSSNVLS

As for `Cc1cc(F)ccc1-c1cc(N2CCS(=O)(=O)CC2)ncc1N(C)C(=O)C(C)(C)c1cc(C(F)(F)F)cc(C(F)(F)F)c1` [2-(3,5-Bis-trifluoromethyl-phenyl)-N-[6-(1,1-dioxo-1λ^6-thiomorpholin-4-yl)-4-(4-fluoro-2-methyl-phenyl)-pyridin-3-yl]-N-methyl-isobutyramide], in data set [1], the “dose calculated to inhibit 50% of the foot-tapping behavior” value is given as 0.1 mg/kg and the “total plasma concentration required to completely block the foot-tapping behavior” value is recorded as “less than 10 ng/ml”. In data set [2], the clearance lay within 0.3 to 1.2 mL/min/kg, the bioavailability is 61%, the half-life was 21 h and the Vd was 0.7 L/kg. In data set [3], the clearance was 1.4 mL/min/kg, the half-life is 56 h and the Vd amounted to 1.5 L/kg. Besides, the Ki in data set [4] was 0.316 nM. The “effect on substance P induced Ca2+ influx” value in data set [5] was “inhibited the substance P induced Ca^2+ influx”.

As for `Cc1ccccc1-c1cc(N2CCS(=O)(=O)CC2)ncc1N(C)C(=O)C(C)(C)c1cc(C(F)(F)F)cc(C(F)(F)F)c1` [2-(3,5-Bis-trifluoromethyl-phenyl)-N-[6-(1,1-dioxo-1λ^6-thiomorpholin-4-yl)-4-o-tolyl-pyridin-3-yl]-N-methyl-isobutyramide], the melting point lay in the range of 200 to 201 °C. Besides, in data set [1], the “dose calculated to inhibit 50% of the foot-tapping behavior” value is recorded as 0.8 mg/kg and the “total plasma concentration required to completely block the foot-tapping behavior” value came to 10 ng/mL. In data set [2], the clearance amounted to 4.7 mL/min/kg, the bioavailability was 18%, the half-life is 9 h and the Vd stood at 4 L/kg. In addition, in data set [3], the clearance amounted to 5 mL/min/kg, the half-life is 8 h and the Vd was found to be 4 L/kg. Moreover, in data set [4], the Ki is 1.26 nM. Further, the “effect on substance P induced Ca2+ influx” value in data set [5] was “inhibited the substance P induced Ca^2+ influx”.
